According to PMC4990478 (Nature chemical biology, 2016):
Where a SMILES comes first, the peptide text is derived from it. [ ]: non-standard residue; d: D form. The star is where a group is joined. ξ: configuration not given here. Aoe(9ξ) = N[C@@H](CCCCCC(=O)C1CO1)C(=O)O; AMC = Cc1cc(=O)oc2cc(N*)ccc12; dPip = O=C(O)[C@H]1CCCCN1

Experiments:
zCD1 = molecular target: T1, zCD1 (Danio rerio, UniProt F8W4B7); test: Steady-state kinetics, fluorogenic substrates; format: biochemical
T1 sequence (F8W4B7 60-419): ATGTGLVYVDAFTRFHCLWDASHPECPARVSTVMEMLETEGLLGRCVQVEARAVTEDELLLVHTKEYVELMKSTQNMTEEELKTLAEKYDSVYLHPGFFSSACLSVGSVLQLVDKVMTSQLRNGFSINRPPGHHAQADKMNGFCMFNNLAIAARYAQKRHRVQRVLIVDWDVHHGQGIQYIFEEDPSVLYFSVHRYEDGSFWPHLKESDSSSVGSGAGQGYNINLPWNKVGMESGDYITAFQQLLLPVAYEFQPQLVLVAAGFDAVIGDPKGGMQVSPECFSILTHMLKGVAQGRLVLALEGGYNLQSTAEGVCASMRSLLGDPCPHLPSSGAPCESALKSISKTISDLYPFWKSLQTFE

[1] = tested on: maize HD1-B (a class I HDAC); details: cited from earlier work
HD1-A (a class II HDAC) = details: cited from earlier work
HDAC6 = details: cited from earlier work
HDAC1 = details: cited from earlier work

Q: Which “kcat/KM reduced, zCD1 compared with zCD2” value (zCD1) does the source give for `CC(=O)NCCCC[C@H](NC(=O)CNC(=O)[C@H](CCCNC(=N)N)NC(C)=O)C(=O)Nc1ccc2c(C)cc(=O)oc2c1` [Substrate 8, Ac-Arg-Gly-Lys(Ac)-AMC] (Ac-Arg-Gly-Lys(Ac)-{AMC}) here?
A: Its value is 7 fold.

Q: Which mode of inhibition [1] does the source give for `C[C@@H]1NC(=O)[C@H]2CCCN2C(=O)[C@H](CCCCCC(=O)[C@@H]2CO2)NC(=O)[C@@H](C)NC1=O` [HC toxin, cyclo-(L-Ala-D-Ala-L-Aoe-D-Pro)] here?
A: The mode of inhibition was “irreversible inhibition”.

Q: And the mode of inhibition (HD1-A (a class II HDAC))?
A: Its mode of inhibition is “reversible inhibition”.

Q: For `O=C(CCCCC[C@@H]1NC(=O)[C@H]2CCCCN2C(=O)[C@H](Cc2ccccc2)NC(=O)[C@H](Cc2ccccc2)NC1=O)C1CO1` (some centres unmarked) [trapoxin] (cyclo(FF[dPip][Aoe(9ξ)])), which mode of inhibition (HDAC6) is on record?
A: The mode of inhibition was “reversible inhibitor”.

Q: What about the mode of inhibition (HDAC1) of the same compound?
A: The mode of inhibition was “potent irreversible inhibitor”.
